# In patent publication US20230138395A1, “PHARMACEUTICAL COMPOSITIONS OF A THERAPEUTIC POLYENE MACROLIDE AND METHODS OF THEIR USE” (priority 2020, published 2023):
# Values joined by “and” are separate entries in the source; they are usually repeats but may differ in a detail not shown here. Identical values can stand only once.
# Assays:
# Candida albicans = assay: MIC testing (CLSI M27-A3); assay type: cell-based; parameters: MIC: unit not given beside the values
# C. glabrata strains [1] = assay: MIC testing (CLSI M27-A3); assay type: cell-based; parameters: MIC: unit not given beside the values
# C. glabrata strains [2] = assay: MFC determination; assay type: cell-based; parameters: MFC: unit not given beside the values
# C. krusei strains = assay: MFC determination; assay type: cell-based
# C. parapsilosis = assay: MIC testing (CLSI M27-A3); assay type: cell-based; parameters: MIC: unit not given beside the values
# C. tropicalis = assay: MIC testing (CLSI M27-A3); assay type: cell-based
# all Candida strains = assay: MFC determination, summary; assay type: cell-based
# Cr. neoformans strains [3] = assay: MIC testing (CLSI M27-A3, YNB, 72 h); assay type: cell-based, Cryptococcus neoformans
# Cr. neoformans strains [4] = assay: MFC determination; assay type: cell-based, Cryptococcus neoformans
# [5] = tested on: individual Aspergillus spp. (Table 12, species not named); assay: MIC testing (CLSI M38-A2), Table 12; assay type: cell-based; details: Aspergillus sp. of Table 12, caspofungin read as MEC
# [6] = tested on: individual Aspergillus spp. (Table 14, species not named); assay: MIC testing (CLSI M38-A2), Table 14; assay type: cell-based; details: Aspergillus sp. of Table 14, caspofungin read as MEC
# [7] = tested on: individual Aspergillus spp. (Table 14, species not named); assay: MFC determination, Table 14; assay type: cell-based; details: Aspergillus sp. of Table 14
# [8] = tested on: individual Aspergillus spp. (Table 15, species not named); assay: MFC determination, Table 15; assay type: cell-based; details: Aspergillus sp. of Table 15
# [9] = tested on: all Aspergillus strains tested; assay: MIC testing (CLSI M38-A2), summary; assay type: cell-based; details: caspofungin read as MEC
# [10] = tested on: all Aspergillus strains tested; assay: MFC determination, summary; assay type: cell-based
# Fusarium strains [11] = assay: MIC testing (CLSI M38-A2), Table 17; assay type: cell-based, Fusarium spp.; details: Fusarium strains (Table 17)
# Fusarium strains [12] = assay: MFC determination, Table 17; assay type: cell-based, Fusarium spp.; details: Fusarium strains (Table 17)
# [13] = tested on: Fusarium strains (Table 18); assay: MFC determination, Table 18; assay type: cell-based, Fusarium spp.
# Penicillium strains [14] = assay: MIC testing (CLSI M38-A2); assay type: cell-based, Penicillium spp.; details: Penicillium
# Penicillium strains [15] = assay: MFC determination; assay type: cell-based, Penicillium spp.
# C. albicans SC5314 [16] = assay: In vitro activity (MIC) against the infecting strain, Example 18; assay type: cell-based, Candida albicans; details: Candida albicans, read-out: MIC
# C. albicans SC5314 [17] = assay: In vitro activity (MFC) against the infecting strain, Example 18; assay type: cell-based, Candida albicans; details: Candida albicans, read-out: MFC
# Candida albicans SC5314 = assay: Disseminated candidiasis in immunocompromised murine model (BALB/c mice): tissue fungal burden; assay type: in vivo; details: Experiment I; 6 mg/kg i.v., 7 days
smiles,measurement,setting,value
"OC(Cn1cncn1)(Cn1cncn1)c1ccc(F)cc1F [Fluconazole, fluconazole]",MIC Range,"Candida albicans; Fluconazole-susceptible C. albicans n = 13, in µg/mL",0.125-0.5
same,MIC50,"Candida albicans; Fluconazole-susceptible C. albicans n = 13, inhibits 50% of strains",0.25 µg/mL
same,MIC90,"Candida albicans; Fluconazole-susceptible C. albicans n = 13, inhibits 90% of strains",0.25 µg/mL
same,MIC,"Candida albicans; individual C. albicans strain with elevated MICs to non-polyene comparators (Table 22), listed as Flu",32 (2×) and >32 (4×) and >64
same,MIC50,"C. glabrata strains [1]; C. glabrata, inhibits 50% of strains",8 µg/mL
same,MIC90,"C. glabrata strains [1]; C. glabrata, inhibits 90% of strains",> 64 µg/mL
same,MIC,"C. glabrata strains [1]; individual C. glabrata strain with elevated MICs to non-polyene comparators (Table 22), listed as Flu",32 and 2 and >64 (2×) and 8 and 64
same,MFC Range,"C. glabrata strains [2]; C. glabrata strains, in µg/mL",>64
same,MFC50,"C. glabrata strains [2]; C. glabrata, kills 50% of strains",> 64 µg/mL
same,MFC90,"C. glabrata strains [2]; C. glabrata, kills 90% of strains",> 64 µg/mL
same,MFC,"C. glabrata strains [2]; individual C. glabrata strain with elevated MICs to non-polyene comparators (Table 22), in µg/mL",>64
same,MFC Range,"C. krusei strains; C. krusei strains, in µg/mL",>64
same,MFC50,"C. krusei strains; C. krusei, kills 50% of strains",> 64 µg/mL
same,MFC90,"C. krusei strains; C. krusei, kills 90% of strains",> 64 µg/mL
same,MFC,C. krusei strains; individual C. krusei strain with elevated MICs to non-polyene comparators (Table 22),> 64 µg/mL
same,MIC50,"C. parapsilosis; C. parapsilosis, inhibits 50% of strains",0.5 µg/mL
same,MIC90,"C. parapsilosis; C. parapsilosis, inhibits 90% of strains",0.5 µg/mL
same,MIC,"C. parapsilosis; individual C. parapsilosis strain with elevated MICs to non-polyene comparators (Table 22), listed as Flu, in µg/mL",0.25 and 0.5 and 1
same,MIC Range,"C. tropicalis; C. tropicalis strains, in µg/mL",0.25-2
same,MIC50,"C. tropicalis; C. tropicalis, inhibits 50% of strains",0.25 µg/mL
same,MIC90,"C. tropicalis; C. tropicalis, inhibits 90% of strains",0.5 µg/mL
same,MFC50,all Candida strains; kills 50% of strains,> 32 µg/mL
same,MFC90,all Candida strains; kills 90% of strains,> 32 µg/mL
same,MIC Range,"Cr. neoformans strains [3]; Cr. neoformans strains, 72 h, in µg/mL",<0.06-16
same,MIC50,"Cr. neoformans strains [3]; Cr. neoformans, inhibits 50% of strains",2 µg/mL
same,MIC90,"Cr. neoformans strains [3]; Cr. neoformans, inhibits 90% of strains",8 µg/mL
same,MFC Range,"Cr. neoformans strains [4]; Cr. neoformans strains, in µg/mL",2
same,MFC50,"Cr. neoformans strains [4]; Cr. neoformans, kills 50% of strains",> 64 µg/mL
same,MFC90,"Cr. neoformans strains [4]; Cr. neoformans, kills 90% of strains",> 64 µg/mL
same,MIC50,[5]; inhibits 50% of strains,> 64 µg/mL
same,MIC90,[5]; inhibits 90% of strains,> 64 µg/mL
same,MIC50,[6]; inhibits 50% of strains,> 64 µg/mL
same,MIC90,[6]; inhibits 90% of strains,> 64 µg/mL
same,MFC Range,[7],> 64 µg/mL
same,MFC50,[7]; kills 50% of strains,> 64 µg/mL
same,MFC90,[7]; kills 90% of strains,> 64 µg/mL
same,MFC Range,[8],> 64 µg/mL
same,MFC50,[8]; kills 50% of strains,> 64 µg/mL
same,MFC90,[8]; kills 90% of strains,> 64 µg/mL
same,MIC50,[9]; inhibits 50% of strains,> 64 µg/mL
same,MIC90,[9]; inhibits 90% of strains,> 64 µg/mL
same,MFC Range,[10],> 64 µg/mL
same,MFC50,[10]; kills 50% of strains,> 64 µg/mL
same,MFC90,[10]; kills 90% of strains,> 64 µg/mL
same,MIC50,Fusarium strains [11]; inhibits 50% of strains,> 64 µg/mL
same,MIC90,Fusarium strains [11]; inhibits 90% of strains,> 64 µg/mL
same,MFC Range,Fusarium strains [12]; in µg/mL,>64
same,MFC50,Fusarium strains [12]; kills 50% of strains,> 64 µg/mL
same,MFC90,Fusarium strains [12]; kills 90% of strains,> 64 µg/mL
same,MFC Range,[13],> 32 µg/mL
same,MFC50,[13]; kills 50% of strains,> 32 µg/mL
same,MFC90,[13]; kills 90% of strains,> 32 µg/mL
same,MIC50,Penicillium strains [14]; inhibits 50% of strains,> 64 µg/mL
same,MIC90,Penicillium strains [14]; inhibits 90% of strains,> 64 µg/mL
same,MFC50,Penicillium strains [15]; kills 50% of strains,> 64 µg/mL
same,MFC90,Penicillium strains [15]; kills 90% of strains,> 64 µg/mL
same,MIC,C. albicans SC5314 [16],0.25 µg/mL
same,MFC,C. albicans SC5314 [17],> 64 µg/mL
same,"Brain tissue fungal burden, Mean log CFUs ± the standard deviation",Candida albicans SC5314,1.28 ± 1.95 log CFUs
same,"Kidney tissue fungal burden, Mean log CFUs ± the standard deviation",Candida albicans SC5314,3.87 ± 1.53 log CFUs
